Laboratory results published in PubChem BioAssay AID1963869 (Molecular Pharmacology Branch, DTP, NCI, 2024).

Test system: KRAS patient-derived spheroids with HUVEC/MSC, viability
Assay: Anticancer human tumor 323965-272-R-J2-PDC patient-derived pancreatic carcinoma cell line growth inhibition [KRAS2]
Conditions: for IC50: curve of first compound; for viability, T/C: stronger effect = lower value
Procedure, shortened: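 Combination screen of spheroid viability in tumor-cell co-cultures with endothelial (HUVEC) and mesenchymal stem cell stroma. Each agent was tested in half-log dilutions, topping at clinical Cmax or at 10 microM without a known Cmax.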

[1] = second compound 0.1 µM, first compound 0.0316 µM
[2] = second compound 0.316 µM, first compound 0.0316 µM
[3] = second compound 1 µM, first compound 0.0316 µM
[4] = second compound 3.16 µM, first compound 0.0316 µM
[5] = second compound 10 µM, first compound 0.0316 µM
[6] = second compound 0.1 µM, first compound 0.1 µM
[7] = second compound 0.1 µM, first compound 0.316 µM
[8] = second compound 0.1 µM, first compound 1 µM
[9] = second compound 0.1 µM, first compound 3.16 µM
[10] = second compound 0.1 µM, first compound 10 µM
[11] = second compound 0.316 µM, first compound 0.1 µM
[12] = second compound 0.316 µM, first compound 0.316 µM
[13] = second compound 0.316 µM, first compound 1 µM
[14] = second compound 0.316 µM, first compound 3.16 µM
[15] = second compound 0.316 µM, first compound 10 µM
[16] = second compound 1 µM, first compound 0.1 µM
[17] = second compound 1 µM, first compound 0.316 µM
[18] = second compound 1 µM, first compound 1 µM
[19] = second compound 1 µM, first compound 3.16 µM
[20] = second compound 1 µM, first compound 10 µM
[21] = second compound 3.16 µM, first compound 0.1 µM
[22] = second compound 3.16 µM, first compound 0.316 µM
[23] = second compound 3.16 µM, first compound 1 µM
[24] = second compound 3.16 µM, first compound 3.16 µM
[25] = second compound 3.16 µM, first compound 10 µM
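Also: spheroids exposed to agents for 7 days.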
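For viability, T/C in this document: 100% = DMSO vehicle control viability.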

SMILES: CC(=O)Nc1cccc(-n2c(=O)n(C3CC3)c(=O)c3c(Nc4ccc(I)cc4F)n(C)c(=O)c(C)c32)c1 + CNCc1ccccc1-c1csc(C(C)Nc2nc(C)nc3cc(OC)c(OC)cc23)c1
- IC50 (second compound 0.1 µM): 3.71 nM
- IC50 (second compound 0.316 µM): 2.91 nM
- IC50 (second compound 1 µM): 4.97 nM
- IC50 (second compound 3.16 µM): 8.68 nM
- IC50 (second compound 10 µM): < 0.1 nM
- viability, T/C (second compound 0.1 µM, first compound 0.0001 µM): 88%
- viability, T/C (second compound 0.1 µM, first compound 0.000316 µM): 83.9%
- viability, T/C (second compound 0.1 µM, first compound 0.001 µM): 60.7%
- viability, T/C (second compound 0.1 µM, first compound 0.00316 µM): 52.4%
- viability, T/C (second compound 0.1 µM, first compound 0.01 µM): 41.2%
- viability, T/C [1]: 27.7%
- viability, T/C (second compound 0.316 µM, first compound 0.0001 µM): 85.3%
- viability, T/C (second compound 0.316 µM, first compound 0.000316 µM): 68.7%
- viability, T/C (second compound 0.316 µM, first compound 0.001 µM): 62.7%
- viability, T/C (second compound 0.316 µM, first compound 0.00316 µM): 49%
- viability, T/C (second compound 0.316 µM, first compound 0.01 µM): 38.7%
- viability, T/C [2]: 24.8%
- viability, T/C (second compound 1 µM, first compound 0.0001 µM): 89.8%
- viability, T/C (second compound 1 µM, first compound 0.000316 µM): 81.6%
- viability, T/C (second compound 1 µM, first compound 0.001 µM): 67.7%
- viability, T/C (second compound 1 µM, first compound 0.00316 µM): 55.5%
- viability, T/C (second compound 1 µM, first compound 0.01 µM): 44%
- viability, T/C [3]: 21.3%
- viability, T/C (second compound 3.16 µM, first compound 0.0001 µM): 95.6%
- viability, T/C (second compound 3.16 µM, first compound 0.000316 µM): 88.4%
- viability, T/C (second compound 3.16 µM, first compound 0.001 µM): 77.6%
- viability, T/C (second compound 3.16 µM, first compound 0.00316 µM): 64.3%
- viability, T/C (second compound 3.16 µM, first compound 0.01 µM): 48.4%
- viability, T/C [4]: 28.8%
- viability, T/C (second compound 10 µM, first compound 0.0001 µM): 7.63%
- viability, T/C (second compound 10 µM, first compound 0.000316 µM): 0.79%
- viability, T/C (second compound 10 µM, first compound 0.001 µM): 6.13%
- viability, T/C (second compound 10 µM, first compound 0.00316 µM): 0.2%
- viability, T/C (second compound 10 µM, first compound 0.01 µM): 0.19%
- viability, T/C [5]: 1.14%

SMILES: CCNC(=O)CC1N=C(c2ccc(Cl)cc2)c2cc(OC)ccc2-n2c(C)nnc21 (stereo not given) + COc1cc2nc(C)nc(NC(C)c3cc(N)cc(C(F)(F)F)c3)c2cc1OC1CCOC1
- IC50 (second compound 0.1 µM): 247 nM
- IC50 (second compound 0.316 µM): 246 nM
- IC50 (second compound 1 µM): 238 nM
- IC50 (second compound 3.16 µM): 189 nM
- IC50 (second compound 10 µM): 170 nM
- viability, T/C [1]: 80.3%
- viability, T/C [6]: 68.8%
- viability, T/C [7]: 44.2%
- viability, T/C [8]: 34.2%
- viability, T/C [9]: 30.3%
- viability, T/C [10]: 28.9%
- viability, T/C [2]: 69.8%
- viability, T/C [11]: 64.2%
- viability, T/C [12]: 45.4%
- viability, T/C [13]: 32.5%
- viability, T/C [14]: 26.8%
- viability, T/C [15]: 25.2%
- viability, T/C [3]: 76.3%
- viability, T/C [16]: 65.3%
- viability, T/C [17]: 44.8%
- viability, T/C [18]: 32%
- viability, T/C [19]: 30.2%
- viability, T/C [20]: 25.5%
- viability, T/C [4]: 74.5%
- viability, T/C [21]: 58.8%
- viability, T/C [22]: 43.9%
- viability, T/C [23]: 29.3%
- viability, T/C [24]: 26.2%
- viability, T/C [25]: 26.6%
- viability, T/C [5]: 72.8%
- viability, T/C (second compound 10 µM, first compound 0.1 µM): 60.4%
- viability, T/C (second compound 10 µM, first compound 0.316 µM): 37.7%
- viability, T/C (second compound 10 µM, first compound 1 µM): 29%
- viability, T/C (second compound 10 µM, first compound 3.16 µM): 28%
- viability, T/C (second compound 10 µM, first compound 10 µM): 25.7%

SMILES: COc1cc(Nc2ncc3c(n2)-c2ccc(Cl)cc2C(c2c(F)cccc2OC)=NC3)ccc1C(=O)O + C=CC(=O)N1CCN(c2nc(OCC3CCCN3C)nc3c2CCN(c2cccc4cccc(C)c24)C3)CC1CC#N
- IC50 (second compound 0.0316 µM): < 31.6 nM
- IC50 (second compound 0.1 µM): 49.4 nM
- IC50 (second compound 0.316 µM): < 31.6 nM
- IC50 (second compound 1 µM): < 31.6 nM
- IC50 (second compound 3.16 µM): < 31.6 nM
- viability, T/C (second compound 0.0316 µM, first compound 0.0316 µM): 60.1%
- viability, T/C (second compound 0.0316 µM, first compound 0.1 µM): 43.8%
- viability, T/C (second compound 0.0316 µM, first compound 0.316 µM): 31.4%
- viability, T/C (second compound 0.0316 µM, first compound 1 µM): 36.3%
- viability, T/C (second compound 0.0316 µM, first compound 3.16 µM): 46%
- viability, T/C (second compound 0.0316 µM, first compound 10 µM): 56.2%
- viability, T/C [1]: 58.1%
- viability, T/C [6]: 35.9%
- viability, T/C [7]: 29.7%
- viability, T/C [8]: 30.7%
- viability, T/C [9]: 39.4%
- viability, T/C [10]: 48.8%
- viability, T/C [2]: 48.5%
- viability, T/C [11]: 33.3%
- viability, T/C [12]: 26.6%
- viability, T/C [13]: 27.8%
- viability, T/C [14]: 35.8%
- viability, T/C [15]: 43.5%
- viability, T/C [3]: 55.3%
- viability, T/C [16]: 32.6%
- viability, T/C [17]: 20.4%
- viability, T/C [18]: 30.5%
- viability, T/C [19]: 38.6%
- viability, T/C [20]: 46.6%
- viability, T/C [4]: 21.1%
- viability, T/C [21]: 13.2%
- viability, T/C [22]: 10.3%
- viability, T/C [23]: 19%
- viability, T/C [24]: 20.5%
- viability, T/C [25]: 15.5%
